Assay results as given in US20090082271A1, “AGENTS THAT REDUCE APOE-INDUCED IMPAIRMENT OF MITOCHONDRIA AND METHODS OF USE THEREOF” (priority 2005, published 2009).
“Also recorded” adds a separate entry of the source.

How the values were obtained:
[1] = system: differentiated PC12 cells; experiment: Time-lapse fluorescence recording of mitochondrial motility and morphology in neurites of differentiated PC12 cells (dsRed2-Mito); conditions: for mitochondrial motility increased: nimodipine 5 μM and AP5 50 μM together (both antagonists), with different forms of apoE; for reduction of percentage of motile mitochondria in response to neuronal activation: apoE 7.5 μg/ml 24 h, then repetitive depolarizations with KCl
[2] = system: rat primary cortical neurons
[3] = system: rat primary hippocampal neurons; assay type: cell-based; conditions: apoE 7.5 μg/ml, 24 h
Text: FIGS. 12A and 12B. […] Scale bar=5 μm.

[4] = system: PC12 cells stably expressing various forms of apoE; experiment: Mitochondrial dynamics in differentiated PC12 cells stably expressing various forms of apoE; assay type: cell-based, rat; conditions: endogenous (stably expressed) apoE, ~200 pg apoE per μg cellular protein; vs control
[5] = system: Neuro-2a cells; experiment: MTT cell survival assay of Neuro-2a cells transiently transfected with apoE4 cDNA constructs; assay type: cell-based, mouse; conditions: expressed by transient transfection; 48 h after transfection; vs WT apoE4 / apoE4(1-272)
Description: Cell Culture and Transfection. […] ApoE4 expression levels were determined by anti-apoE western blotting of cell lysates and media. […] Thus, the results are not due to overexpression.
Cell Survival. […] Cell survival was estimated with an MTT colorimetric assay (52) 48 h after transfection.

[6] = system: primary cortical neurons; experiment: Number, occupancy and size of mitochondria in dendrites of primary cortical neurons; assay type: cell-based, rat; conditions: vs apoE3-treated cells or controls
[7] = repetitive depolarization with KCl 90 mM

With NC(CCCP(=O)(O)O)C(=O)O (stereo not drawn) [AP5, 2-amino-5-phosphonovalerate] the mitochondrial motility increased ([1]; 24 h) was “about 30%”.

For NC1=N[C@H](O)[C@H]2[C@H]3O[C@]4(O)O[C@@H]([C@@H](O)[C@@]2(N1)[C@@H]4O)[C@]3(O)CO [TTX, tetrodotoxin], the “differences in mitochondrial dynamics between forms of apoE in the presence of TTX” value [1] was “No significant differences”, the mitochondrial dynamics [1] was “increased” and the mitochondrial index [1] was “without affecting; also recorded: not affected”. For the same compound, the “differences in dendritic spine density between forms of apoE in the presence of TTX” value [2] was “No significant differences”.

“apoE3: recombinant apolipoprotein E3 isoform; also stably expressed in PC12 cells” was tested, and the “density of dendritic spines increased vs controls” value [3] was 11±4%, the “percentage of motile mitochondria reduced” value [4] was “unaffected” and the “reduction of percentage of motile mitochondria in response to neuronal activation” value [1] was 58±6%. The “average length of mitochondria” value ([1]; exogenous apoE 7.5 μg/ml, 24 h) was “did not”, the “mitochondrial motility / dynamics overall” value ([1]; exogenous apoE 7.5 μg/ml, 24 h) was “not affected” and the “mitochondrial motility / dynamics overall” value ([1]; exogenous apoE 7.5 μg/ml, 24 h, listed as ApoE3) was “did not alter mitochondrial dynamics significantly”. The “density of dendritic spines increased vs controls” value ([2]; apoE 7.5 μg/ml, 24 h) was 20±6%.

With “Q284A: full-length WT apoE4 with single mutation Q284A” the “neurotoxicity (cell survival, MTT assay)” value [5] was “as neurotoxic as apoE4(1-272)”.

For COCCOC(=O)C1=C(C)NC(C)=C(C(=O)OC(C)C)C1c1cccc([N+](=O)[O-])c1 (stereo not drawn) [nimodipine], the mitochondrial motility increased ([1]; 24 h) was “about 30%”.

In the case of [Cl-].[K+] [KCl], the “average moving velocity (anterograde direction)” value [1, 7] is reported as “drastically reduced”, the “mitochondrial moving velocity (distance/time moving)” value [1, 7] is reported as “unaltered; also recorded: did not affect” and the “net moving distance (anterograde direction)” value [1, 7] is reported as “drastically reduced”. The retrograde motility [1, 7] was “No significant changes” and the mitochondrial index reduced ([1]; repetitive depolarizations with KCl (4×, 90 mM)) was 22.5%.

For “aa241-272 of apoE4: lipid binding region alone of apoE4 (AKLEEQAQQIRLQAEAFQARLKSWFEPLVEDM; UniProt P02649 259-290, looked up, fragment)”, the “neurotoxicity (cell survival, MTT assay)” value [5] was “No neurotoxicity was observed”.

“L279Q: full-length WT apoE4 with single mutation L279Q” was tested, and the “neurotoxicity (cell survival, MTT assay)” value [5] was “as neurotoxic as apoE4(1-272)”.

“apoE4: full-length human apolipoprotein E4 (SEQ ID NO:1); expressed from cDNA or added as recombinant protein” was tested, and the “density of dendritic spines decreased vs controls” value [3] was 19±5%, the “density of dendritic spines reduced compared with apoE3” value [3] was 28±4% and the “number of mitochondria in dendritic spines” value [6] was “many fewer mitochondria”. The “reduction of percentage of motile mitochondria in response to neuronal activation” value [1] was 30%, the “average length of mitochondria” value ([1]; exogenous apoE 7.5 μg/ml, 24 h) was “significantly reduced” and the retrograde velocity ([1]; exogenous apoE 7.5 μg/ml, 24 h) was “unaffected”. For the same compound, the “spinal density reduced in response to neuronal activation, compared to controls” value ([2]; apoE 7.5 μg/ml 24 h, repetitive KCl depolarization) was 48±11%, the “density of dendritic spines decreased vs controls” value ([2]; apoE 7.5 μg/ml, 24 h) was 13±5% and the “density of dendritic spines reduced compared with apoE3” value ([2]; apoE 7.5 μg/ml, 24 h) was 27±5%.
